The results in this text go back to patent publication US8252557B2, “Peptide-containing culture medium for culturing animal cell” (Chugai Seiyaku Kabushiki Kaisha, priority 2008, dated 2012).

For this experiment, the system named is humanized IgG (anti-glypican-3 antibody)-producing CHO cell line. Kind of experiment: Antibody-producing fed-batch culture, CHO cell line transfected with antibody gene. Conditions: for concentration of lactic acid during culture: compared to fed-batch medium not containing the peptide; for antibody concentration after the 14-day culture: fed day 3-14 at 1.0 g/hr per L, control about 1.6 g/L; for antibody concentration higher than control: peptide-containing fed-batch medium vs fed-batch medium without peptide, day 14. The experiment is classed as cell-based. On the procedure: (§1) The initial culture medium was placed in a jar-type cell culture system, and then the CHO cell line was added thereto into a concentration of 2×10^5 cells/mL and was cultured under the conditions of 37° C. and 10% CO2. During the culture period of 14 days, a pH level of not lower than 7.0 and a dissolved oxygen level of 40% were automatically maintained. The fed-batch medium was continuously fed from the 3rd day to the 14th day of the culture at a constant flow rate (1.0 g/hr for 1 L of the initial culture medium). The culture medium was sampled at the start of the culture and on the 3rd, 5th, 7th, 10th, 12th, and 14th days. The number of viable cells in each sampled culture solution was counted by trypan blue staining. The antibody concentration in the centrifuged supernatant of each culture solution was measured by affinity chromatography using protein A, and the concentration of lactic acid was measured by an immobilized enzyme process.
as §1, with “concentration” for “number”, “the produced” for “viable cells in each sampled culture solution was counted by trypan blue staining. The”, “antibody” for “antibody concentration”, “the” for “the centrifuged”, “sample” for “solution”, “A; the survival rate was measured by trypan blue staining;” for “A,”

Where [1] appears, read: fed-batch medium containing 50 mM of the peptide.

Turning to Cys-Tyr [dipeptide], the “concentration of lactic acid during culture” value was “relatively low levels from the 5th day to the 10th day” and the “antibody concentration higher than control” value is reported as “about 25%”. The “antibody concentration after the 14-day culture” value under setting [1] is “about 2.0 g/L”.
Consider Cys-Tyr-Ser [tripeptide], for which the “concentration of lactic acid during culture” value is “relatively low levels from the 3rd day to the 10th day” and the “antibody concentration higher than control” value is “about 30%”. Besides, under “fed-batch medium containing 25 mM of the tripeptide”, the “antibody concentration after the 14-day culture” value is recorded as “about 2.1 g/L”. The “antibody concentration after the 14-day culture” value under setting [1] is listed as “about 2.1 g/L”.
